Row | SMILES | melting point
1 | CC(/C=C/c1ccsc1-c1ccc2c(c1)C(C)(C)CCC2(C)C)=C\C(=O)O | 195 to 197 °C
2 | CC1(C(=O)NNc2c(Cl)cc(C(F)(F)F)cc2Cl)CC1(Cl)Cl (stereo unspecified) | 174 to 175 °C
3 | COC(=O)CCC(=O)Oc1c(C)c(C)c2c(c1C)SC(C)O2 (stereo unspecified) | 73 to 75 °C
4 | O=C(O)c1cccc(NC(=O)[C@H](CO)NS(=O)(=O)c2ccc(Cl)cc2)c1 | 220 to 224 °C
5 | Cc1nnc2n1-c1sc(C#CCN3C(=O)c4ccccc4S3(=O)=O)cc1C(c1ccccc1Cl)=NC2 | 232 to 234 °C
6 | CC1(CCS)CN2CCCC(C(=O)O)N2C1=O (stereo unspecified) | 119 to 122 °C
7 | COc1ccc(C[C@H]2C3=C(CCCC3)CCN2C(C)=O)cc1 | 80 to 81.5 °C
8 | C=CC(=O)OCC(CCCCCCCCCCCOc1ccc(-c2cccc(F)c2F)cc1)COC(=O)C=C | 33.4 to 34.4 °C
9 | O=C1CC(Sc2nnc(S)s2)C(=O)O1 (stereo unspecified) | 194 to 196 °C
10 | CC1(C)CCC(C)(C)c2cc3c(cc21)CCc1c(-c2ccc(C(=O)O)cc2)c[nH]c1-3 | 268 to 270 °C
11 | CCN(CC(=O)O)c1ccc(OCC(C)(C)C)c(C#N)c1 | 78 °C
12 | CC(NC(=O)c1c[nH]c2ncc(-c3nn(CC(O)CO)c4cc(Cl)ccc34)nc12)C(=O)N1CC(C#N)C1 (stereo unspecified) | 165 to 180 °C
13 | NCC1CC(CCC(=O)O)=NO1 (stereo unspecified) | 201 °C
14 | CCCCCCCCCCCCCCCCNC(=O)Nc1sc(C(=O)O)c(C)c1C(=O)OC(C)(C)C | 188 to 189 °C
15 | CCCNC(=S)Nc1sccc1C(=O)OC | 123 to 126 °C
16 | CNc1n[nH]c(=O)n1N | 214 °C
17 | N#CCc1ccc(-c2nc3ccccc3o2)cc1N | 198 to 199 °C
18 | CC1(C)NC(=O)CSC1=NO | 234 to 236 °C
19 | CN(c1ccc(OCCCCBr)cc1)S(=O)(=O)c1ccc(C(F)(F)F)cc1 | 91 to 92 °C
20 | C#CCC(C(=CCl)c1cccnc1)c1ccc(Cl)cc1Cl (stereo unspecified) | 87 to 88 °C
21 | Cc1cc(Cl)nnc1-c1ccc(C#N)cc1 | 218 to 220 °C
22 | NC(=O)N1CCN(C(=O)Cc2ccc(Cl)c(Cl)c2)C(CN2CCCC2)C1 (stereo unspecified) | 206 to 209 °C

Row | SMILES | melting point
23 | Nc1nn2cc(-c3ccc([N+](=O)[O-])o3)nc2s1 | 257 to 258 °C
24 | Clc1ccc(-n2c(Cn3ccnc3)nc3ccccc32)cc1 | 121 to 122 °C
25 | COc1ccc(-c2cc(-c3ccc(F)cc3)c3c(=O)n(C)c(=O)n(C)c3n2)cc1 | 240 to 243 °C
26 | COc1ccc(-c2nc3cc(OC)cc(C#N)c3o2)cc1 | 180 to 183 °C
27 | O=C(N[C@H]1CCCNC1=O)c1cc(F)ccc1F | 140 to 142 °C
28 | CCn1nc(OC2CSCCC2=O)c(-c2ccc(F)cc2)c1-c1ccc(S(C)(=O)=O)cc1 (stereo unspecified) | 210 to 211 °C
29 | CC(=O)SC(C(=O)c1ccccc1)C(C)C(=O)N1C(c2cccc(C(F)(F)F)c2)SC[C@H]1C(=O)O (stereo partly specified) | 152 to 154 °C
30 | CC(C)CCCC(C)C1CCC2C3CCC4CC(OC(=O)c5ccccc5)CCC4(C)C3CCC12C (stereo unspecified) | 215 to 216 °C
31 | CCCOC(C(Cc1ccc(Cl)cc1)n1cncn1)C1(C)COCOC1 (stereo unspecified) | 94 to 96 °C
32 | NS(=O)(=O)c1ccc(NC(=O)Nc2ccc(F)cc2)cc1 | 242 to 243 °C
33 | NC(=O)c1cc(-c2ccc(Cl)cc2)n(-c2ccc(S(N)(=O)=O)cc2)n1 | 108 to 110 °C
34 | COc1ccc(N(C(=O)CN2C(=O)C(COCc3ccccc3)C(=O)N(c3ccccc3)c3ccccc32)C(C)C)cc1 (stereo unspecified) | 203 to 204 °C
35 | Fc1ccc(-c2nc(-c3ccc(CN4CCOCC4)cc3)[nH]c2-c2ccncc2)cc1 | 242 to 243 °C
36 | C=CC[N+]([O-])(CCCCCCCCCCCCCCCCCC)CCCCCCCCCCCCCCCCCC | 59 to 64 °C
37 | CN1CCN(C(=O)Cc2c(-c3ccc(Cl)cc3)nc3ccccn23)CC1 | 175 °C
38 | CCOc1cc(-c2cc(C(F)F)n3ncc(C(=O)Nc4cccc(S(=O)(=O)N5CCOCC5)c4)c3n2)ccc1C(F)(F)F | 231 °C
39 | Nc1cc(-n2cc(C(=O)O)c(=O)c3c(O)c(F)c(F)cc32)c(F)cc1F | > 270 °C
40 | CC(=O)OC(c1cscc1S(N)(=O)=O)C(C)F (stereo unspecified) | 92 to 94 °C
41 | Nc1nc(NCCO)nc(N2CCOCC2)n1 | 159 to 161 °C
42 | CCOCc1cc(C(C)(C)C)cc(COCC)c1SSc1c(COCC)cc(C(C)(C)C)cc1COCC | 62 to 63 °C
43 | O=C(O)CCCCCCCn1c(-c2ccccc2)nc(-c2ccccc2)c1-c1ccccc1 | 162 °C
44 | O=C(O)C1(c2cccc(C(F)(F)F)c2)CCN(Cc2ccccc2)CC1 | 243 °C

Row | SMILES | melting point
45 | O=C(N[C@H]1CC[C@H](CCN2CCN(c3nccc4c3CCO4)CC2)CC1)c1ccc(Cl)cc1Cl | 204 °C
46 | O=C(C1CCCc2c1c1ccccc1n2Cc1ccccc1)N1CCN(c2ccccc2)CC1 (stereo unspecified) | 273 to 274 °C
47 | C=C1C(=C)C2OC1C1=C2CC2C(O)C=CC(=O)C2C1 (stereo unspecified) | 110 °C
48 | CCCCCCCCc1ccc2nc(-c3ccc(COC(CCCCCC)C(F)(F)F)cc3)sc2c1 (stereo unspecified) | 37.2 °C
49 | CC(C)(CO)CCCCC(CCCCC(C)(C)CO)C(C)(C)O | 72 to 74 °C
50 | CC(C)c1ccc2c(=O)c(S(C)=O)cn(C)c2c1 (stereo unspecified) | 214 to 215 °C
51 | O=C(C1CC=CCC1)C1CCC2C(C=CC3=CCCc4c3n2c2ccncc42)C1 (stereo unspecified) | 156 to 158 °C
52 | COc1ccc(-c2nc(Cl)cc(Cl)n2)cc1 | 127 to 128 °C
53 | O=C1CNc2ncc(I)cc2N1Cc1cc(F)ccc1C(F)(F)F | 244 to 245 °C
54 | CCNc1cc(O)c(C(C)=O)cc1C(C)=O | 103 to 104 °C
55 | Cc1ccc(S(=O)(=O)OC[C@@H]2NC(=O)[C@@H]2N=[N+]=[N-])cc1 (relative stereo) | 77 to 78 °C
56 | CCOC(=O)c1ncn2c1CN=C(c1ccccc1F)c1cc(I)ccc1-2 | 200 to 202 °C
57 | CN(C)C=Nc1ccc(-c2ncnn2-c2ccc(F)cc2)cc1 | 159 to 161 °C
58 | Cc1cncc2c1C(=N)N(Cc1ccccc1)S2(=O)=O | 37 to 39 °C
59 | CC(=O)C(=Cc1ccc(Cl)c(Cl)c1)C(C)=O | 73 °C
60 | NC(=O)CN1C(=O)C[C@@H]2CCC[C@@H]21 (relative stereo) | 142 to 144 °C
61 | CN(C)C(=O)N(C)Cc1ccc(CCn2cnc3cc(-c4ccc(Cl)cc4)sc3c2=O)cc1 | 160 to 165 °C
62 | Cc1cc(Oc2ccc(NC(=O)c3ccccc3C(c3ccc(O)cc3)c3ccc(O)cc3)cn2)cc(C)c1Cl | 125 °C
63 | Cc1ccc(Cl)cc1NC(=O)c1cc([N+](=O)[O-])ccc1NC(=O)CF | 210 to 212 °C
64 | COc1cnc[nH]c1=O | 206 to 208 °C
65 | CC(C)(C)n1cc(-c2ccc(I)cc2)c(C#N)c1N | 166 to 167 °C

Results, then the molecule that gave them:

Row | melting point | SMILES
66 | 50 to 52 °C | O=C(NCCc1ccccc1)C(F)(F)F
67 | 151 to 155 °C | Cc1ccc(C(=S)c2ccccc2C(=O)O)cc1
68 | 222 to 224 °C | CCc1cncc(-c2[nH]nc(C(=O)Cc3ccc4ccccc4c3)c2N)c1
69 | 141 to 142 °C | COCOc1cc(COc2nn(Cc3ccccc3)cc2C=O)ccc1OCc1nc(-c2ccco2)oc1C
70 | 82 to 83 °C | COCCN1CC(c2ccccc2)NC1=O (stereo unspecified)
71 | 112 to 113 °C | COCOc1nn(-c2ccccc2)cc1/C=C/c1csc(C(C)(C)C)n1
72 | 117 °C | CCC(C)N(C)C(=O)c1cc2ccsc2c(-c2ccccc2)n1 (stereo unspecified)
73 | 51 to 57 °C | O=S(Cc1noc(Cc2ccccc2)n1)c1ccc(CCNC[C@H](O)COc2ccc(O)cc2)cc1 (stereo partly specified)
74 | 94 °C | OC(CCl)(c1ccccc1)c1ccc(-c2ccccc2)cc1 (stereo unspecified)
75 | 149 °C | O=C1[C@@H](N2C(=O)c3ccccc3C2=O)[C@@H](CCl)N1Cc1ccccc1 (relative stereo)
76 | 171 to 174 °C | CC1(C)Oc2cc([N+](=O)[O-])c(NC(=O)Cc3ccc(-c4ccccc4)cc3)cc2C2OC21 (stereo unspecified)
77 | 220 to 221 °C | O=C1NN=C(c2cccc([N+](=O)[O-])c2)C2CC12 (stereo unspecified)
78 | 123 to 125 °C | COc1ccccc1CNC(=O)C1N(C(=O)C(O)C(Cc2ccccc2)NC(=O)c2cccc(O)c2C)CSC1(C)C (stereo unspecified)
79 | 213 to 214 °C | CC(C)Cn1c(CNC(=O)OC(C)(C)C)c(-c2ccccc2F)c2cc(C(=O)O)ccc2c1=O
80 | 113 to 115 °C | CC(C=O)c1ccc2cc(OCc3ccc4ccccc4n3)ccc2c1 (stereo unspecified)
81 | 165 to 166 °C | Cc1ccc(C2CC(N)=NN2c2ccccc2)cc1 (stereo unspecified)
82 | 132 to 133 °C | O=[N+]([O-])c1ccc(F)c2ncccc12
83 | > 250 °C | COc1ccc2c(c1)nc(O)c1nncn12

Row | melting point | SMILES
84 | 83 to 84 °C | COC(=O)c1cnoc1-c1ccc(Cl)cc1Cl
85 | 154 to 156 °C | OCCNc1cc(Nc2ccc(Oc3ccccc3)cc2)ncn1
86 | 212 to 214 °C | N#CCc1c[nH]c2ccc(NC(N)=S)cc12
87 | 230 to 233 °C | CCOC(=O)c1ccc(Nc2nc(=O)c3cccnc3s2)cc1
88 | 212 to 214 °C | CCCCn1c(=O)c2cc(C(=O)O)cn2c2ccccc21
89 | 131 to 132 °C | COc1cc2c3c(c1OC)C=NCC3c1ccccc1CC2 (stereo unspecified)
90 | 133 to 134 °C | NN=C(c1ccccc1)c1cc(Cl)ccc1N
91 | 34 to 35 °C | CCCCCCCCCCCCCCOc1ccc(COC(=O)Oc2ccccc2)cc1
92 | 190 to 191 °C | CC(=O)Oc1ccc(-c2c3ccccc3c(Br)c3sc(C)c(C)c23)cc1
93 | 110 to 112 °C | CC=NN(C(=O)c1ccccc1)c1ccc(OC)c(F)c1
94 | 103 °C | COC(=O)Cc1sc(=O)[nH]c1COc1ccccc1
95 | 192 to 194 °C | O=C(NN=CC=Cc1ccccc1)c1ccccc1
96 | 135 to 140 °C | COc1ccc(-c2ncccc2C=C(Cc2cc3c(cc2OC)OCO3)C(=O)O)c(OCc2ccccc2C(=O)O)c1
97 | 195 to 196 °C | CCCC(=O)Oc1c(-c2ccc(-c3ccccc3)cc2)nc2ccccc2c1C(=O)O
98 | 215 to 216 °C | CCOC(=O)c1cn2c(cc(Cl)c3ccc(OC)cc32)n1
99 | 194 to 198 °C | O=C(NC1CCc2ccc([N+](=O)[O-])cc2C1)c1ccccc1 (stereo unspecified)
100 | 211 to 212 °C | NC(=O)NN=Cc1ccc(OCc2ccccc2F)cc1
101 | 236 to 238 °C | O=c1[nH]c2ccccc2c(=O)n1C1CCCCC1

— a melting point compilation (Tetko et al.; mined from patent text by program, amines drawn as free bases though some values may be those of a salt)
